For assay [1], the target named is Glutamate NMDA receptor; GRIN1/GRIN2B (Homo sapiens, UniProt Q05586+Q13224). Briefly: Inhibition of N-methyl-D-aspartate glutamate receptor-evoked increase of intracellular Ca+ in cells expressing NMDA glutamate receptor 1/2B. In kind it is functional, cell-based.
Assay [2] deals with Glutamate [NMDA] receptor. Briefly: Inhibition of [3H]Ro-256981 binding to N-methyl-D-aspartate glutamate receptor. The assay is classed as protein-complex assay.

The record followed here is ChEMBL document CHEMBL1136340, “Indole-2-carboxamides as novel NR2B selective NMDA receptor antagonists” (Bioorg Med Chem Lett, 2003).

By IC50 is commonly meant the concentration needed to halve the response being measured. A higher IC50 goes with weaker potency.

Glutamate NMDA receptor; GRIN1/GRIN2B, sequence (Q13224 whole entry, other chains not shown): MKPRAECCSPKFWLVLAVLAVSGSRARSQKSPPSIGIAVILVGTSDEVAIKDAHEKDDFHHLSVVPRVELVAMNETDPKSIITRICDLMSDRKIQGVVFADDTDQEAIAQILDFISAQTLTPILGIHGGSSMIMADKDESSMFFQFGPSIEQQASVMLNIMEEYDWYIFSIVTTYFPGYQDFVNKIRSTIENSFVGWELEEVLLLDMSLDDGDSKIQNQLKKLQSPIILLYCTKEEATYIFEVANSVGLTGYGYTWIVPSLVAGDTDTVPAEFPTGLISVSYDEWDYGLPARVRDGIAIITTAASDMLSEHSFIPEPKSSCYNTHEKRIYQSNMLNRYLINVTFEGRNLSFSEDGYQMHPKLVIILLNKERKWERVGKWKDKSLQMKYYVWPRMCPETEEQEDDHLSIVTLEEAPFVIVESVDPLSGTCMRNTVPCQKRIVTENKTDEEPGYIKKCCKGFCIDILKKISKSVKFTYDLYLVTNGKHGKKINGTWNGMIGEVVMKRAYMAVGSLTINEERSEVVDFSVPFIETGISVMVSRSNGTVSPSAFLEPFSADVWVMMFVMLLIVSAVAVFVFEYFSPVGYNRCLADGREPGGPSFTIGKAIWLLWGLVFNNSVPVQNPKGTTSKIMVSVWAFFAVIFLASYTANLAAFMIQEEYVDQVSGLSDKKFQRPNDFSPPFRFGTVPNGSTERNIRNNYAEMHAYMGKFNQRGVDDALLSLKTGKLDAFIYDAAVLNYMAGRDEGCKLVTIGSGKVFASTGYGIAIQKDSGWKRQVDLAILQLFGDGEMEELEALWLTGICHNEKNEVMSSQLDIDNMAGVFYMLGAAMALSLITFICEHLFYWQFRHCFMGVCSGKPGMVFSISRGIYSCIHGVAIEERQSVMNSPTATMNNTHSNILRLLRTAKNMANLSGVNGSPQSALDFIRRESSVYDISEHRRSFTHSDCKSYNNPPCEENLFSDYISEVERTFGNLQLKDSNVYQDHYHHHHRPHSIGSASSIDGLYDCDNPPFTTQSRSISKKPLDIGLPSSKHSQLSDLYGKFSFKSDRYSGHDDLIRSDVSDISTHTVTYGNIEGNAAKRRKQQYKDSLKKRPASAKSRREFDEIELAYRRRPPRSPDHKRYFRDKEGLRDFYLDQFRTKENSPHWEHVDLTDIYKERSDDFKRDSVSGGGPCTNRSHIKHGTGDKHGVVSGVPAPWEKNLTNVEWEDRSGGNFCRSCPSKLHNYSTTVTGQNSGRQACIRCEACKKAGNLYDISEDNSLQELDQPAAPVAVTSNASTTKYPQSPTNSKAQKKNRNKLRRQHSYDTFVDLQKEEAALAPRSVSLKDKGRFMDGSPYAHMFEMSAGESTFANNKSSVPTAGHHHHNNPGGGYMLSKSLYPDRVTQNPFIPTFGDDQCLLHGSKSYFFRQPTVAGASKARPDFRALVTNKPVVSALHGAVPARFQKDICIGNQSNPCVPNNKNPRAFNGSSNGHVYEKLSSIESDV

As to `O=C(c1cc2cccc(O)c2[nH]1)N1CCC(Cc2ccccc2)CC1`, the results for the IC50 in assay [1] and in assay [2] were 77 nM and 380 nM, respectively.
The corresponding values for `O=C(/C=C/c1ccc(O)cc1)N1CCC(Cc2ccccc2)CC1` are 104 nM and 196 nM.
Regarding `O=C(c1cc2ccc(O)cc2[nH]1)N1CCC(c2ccccc2)CC1`, the IC50 in assay [1] was greater than 8000 nM.
`O=C(c1cc2cc(O)ccc2[nH]1)N1CCC(Cc2ccccc2)CC1`: the results for the IC50 in assay [1] and in assay [2] were 40 nM and 31 nM, respectively.
On to `O=C(c1cc2c(O)cccc2[nH]1)N1CCC(Cc2ccccc2)CC1`, for which the IC50 in assay [1] was 39 nM; in assay [2], 18 nM.
Take `O=C(c1cc2c(O)cc(O)cc2[nH]1)N1CCC(Cc2ccccc2)CC1`: the IC50 in assay [1] turned out to be 10 nM; in assay [2], 6 nM.
Turning to `C[C@@H](CN1CCC(Cc2ccccc2)CC1)[C@@H](O)c1ccc(O)cc1`, the values for the IC50 in assay [1] and in assay [2] were 57 nM and 6 nM, respectively.
Regarding `O=C(c1cc2cc(O)cc(O)c2[nH]1)N1CCC(Cc2ccccc2)CC1`, the IC50 in assay [1] stood at 52 nM; in assay [2], 106 nM.
On to `O=C(c1cc2ccc(O)cc2[nH]1)N1CCC(OCc2ccccc2)CC1`, for which the IC50 worked out at 46 nM in assay [1] and 47 nM in assay [2].
Consider `O=C(c1cc2ccc(O)cc2[nH]1)N1CCC(CCc2ccccc2)CC1`, for which the results for the IC50 in assay [1] and in assay [2] were 24 nM and 359 nM, respectively.
Consider `O=C(c1cc2ccc(O)cc2[nH]1)N1CCC(Cc2ccccc2)CC1`, for which the IC50 in assay [1] came out at 20 nM; in assay [2], 12 nM.
`O=c1[nH]c2ccc([S+]([O-])CCN3CCC(Cc4ccc(F)cc4)CC3)cc2o1` (stereo not drawn) [BESONPRODIL]: the IC50 stood at 8 nM in assay [1] and 4 nM in assay [2].
